Counter-ions that a name gives are not always drawn. One block for each compound: values may come before it.
Legend:
anesthetized rats = test: Hypotensive activity by intravenous administration in anesthetized rats (Example 23); format: in vivo, Male Wistar rats
Protocol: Male Wistar rats weighing about 250 g were used. They were anesthetized with urethane (500 mg/kg) and α-chloralose (100 mg/kg) intraperitoneal injection.
The test compound was dissolved in a small quantity of ethanol and the solution, which was then diluted with physiological saline to have a final concentration of ethanol kept at 5% or lower, was intravenously injected through a catheter inserted into the femoral vein.
The blood pressure was recorded with the pressure transducer via the catheter inserted into the common carotid artery of the rats.
Hypotensive activity of the test compound was indicated by the dose (ED20 μ/kg) required for decreasing the mean blood pressure by 20% as compared with the mean blood pressure before the administration.
To determine the duration of the hypotensive action of the test compound, half-life of hypotensive action T^1 /2) was measured.

conscious rats = test: Antihypertensive activity by oral administration in conscious rats; format: in vivo, Male Wistar rats; conditions: 10 mg/kg oral
Protocol: When one hour or more passed after the rats were aroused, they were administered the test compound orally.
The blood pressure in the femoral artery was recorder and changes in the mean blood pressure were obtained from the following equation. [formula]

[1] = tested on: SHR (Spontaneously Hypertensive Rats); test: Antihypertensive activity in SHR; format: in vivo, Male SHR (Spontaneously Hypertensive Rats); conditions: no anesthesia
Protocol: Male SHR (14 to 16 weeks old) fasted for more than 16 hours were used. […] When one hour or more passed after the rats woke up out of the ether, they were administered the test compound orally. The blood pressure was measured with the pressure transducer via the catheter inserted into the femoral artery.
The test compound was dissolved in a small quantity of ethanol and diluted with water to be adjusted for administration.
Changes in the mean blood pressure were obtained from the equation mentioned below. The Basic and Clinical Study, vol. 14, p. 4495 (1980) is a useful literature to be referred to for making this kind of experiment. [formula]

mean blood pressure = test: Action on mean blood pressure in anesthetized dog; format: in vivo, male beagle dog; conditions: 10 μg/kg i.v.
Protocol: (§1) A male beagle dog weighing about 10 kg was anesthetized with sodium pentobarbital (35 mg/kg i.v.). The test compound was dissolved in a small quantity of ethanol, diluted with an isotonic sodium chloride solution, and was injected into the right femoral vein.
The mean blood pressure (MBP) was measured with the pressure transwer via the cannula inserted into the right femoral artery of the male beagle dog. The changes in the blood pressure after the administration of the test compound are shown in percentages in Table 5.

myocardium = test: Action on myocardium (Max dLVP/dt) in anesthetized dog; format: in vivo, male beagle dog; conditions: 10 μg/kg i.v.
Protocol: as §1
The left ventricular pressure (LVP) was measured with the pressure transducer via the cannula which was inserted from the left common carotid artery into the left ventricle and the recorded pressure was differentiated to calculate the max (dLVP/db), thus measuring the pharmacological action of the test compound on the myocardium. […] The Basic and Clinical Study, vol. 14, 4477 (1980) is a useful literature to be consulted with for making this kind of experiment. It is apparent from Table 6 that the compound of this invention has less exciting action on the myocardium than nicardipine.

[2] = tested on: cerebral blood vessels (common carotid artery); test: Action on cerebral blood vessels (carotic blood flow) in anesthetized dog; format: in vivo, male beagle dog; conditions: 3 μg/kg i.v.
Protocol: as §1
(§2) The carotic blood flow (CBF) and the femoral blood flow (FBF) were measured with the electromagnetic blood flowmeter (MFV-1200 made by Japan Photoelectric Co., Ltd.) via probe for measuring the blood flow volume set in the right common carotid artery and the left femoral artery of the male beagle dog respectively.

[3] = tested on: peripheral blood vessels (femoral artery); test: Action on peripheral blood vessels (femoral blood flow) in anesthetized dog; format: in vivo, male beagle dog; conditions: 3 μg/kg i.v.
Protocol: as §1, §2

Ca^++ contraction = test: Activity of calcium ion blocking action (thoracic aorta strips); set-up: species or system male wister rat
Protocol: Spillay cut strips of thoracic arota were obtained from male wister rat and mounted in K-depalarized solution. 30-40 min. after treatment of compound (140) hydrochloride various concentration of Ca^++ were applied and concentration-response curve of calcium ion (Ca^++) was obtained.

platelet aggregation = test: In vitro inhibitory activity of platelet aggregation; format: cell-based, male Hartley guinea pigs; conditions: AA 75 μM; for inhibition at 100 µM: Cavia porcellus, Platelet, Conc. 100 μM
Protocol: The in vitro platelet aggregation inhibiting activities of the compounds of the invention were examined by using guinea pigs. Blood was withdrawn by cardiac puncture from male Hartley guinea pigs weighing […]. A mixture of a 3.8% trisodium citrate solution and the blood in a ratio of 1:9 was centrifuged at a speed of 800 rpm for 10 minutes. The upper layer was separated as platelet-rich plasma (PRP). The lower layer was further centrifuged at a separated as platelet-poor plasma (PPP). The number of platelets was adjusted to 5×10^5 /μl to 6×10^5 /μl by filuting the PRP with PPP. 25 microliters of the test compounds prepared as shown below was added in an amount of 25 microliters of PRP after the adjustment, and the mixture was pre-incubated at 37° C. for 2 minutes, and then 75 μM (final) of AA was added. By using an aggregometer (37° C., 1,100 rpm), changes in transmission were recorded.
The test compound was dissolved in ethanol to a concentration of 10 mg/ml. When its activity was measured, it was used after being diluted with phosphate buffer (pH 7.4). Furthermore, after dilution with the buffer, the test compound was left to stand at 0° C. for 4 hours, and the activity of the test compound was similarly measured.
The rate of inhibition of platelet aggregation was determined from the following equation. [formula]

[4] = Light stability in methanol solution; format: physicochemical; conditions: light, read-out: Remaining percentage
Protocol: 1 mg of compound (156) hydrochloride was dissolved in 100 ml of methanol. The solution was placed in a transparent glass test tube, and after the test tube was tightly stoppered, it was allowed to stand by the window of the laboratory. Part of the solution was taken at regular intervals and subjected to high performance liquid chromatograph to determined the remaining quantity of compound (156) hydrochloride contained in the solution. The same experiment was conducted with nicardipine hydrochloride as the control.

[5] = prior art; cited from earlier work

remaining at 2 h ([4]; 2 hr.): 98% | remaining at 4 h ([4]; 4 hr.): 87% | remaining at 6 h ([4]; 6 hr.): 78%
SMILES: COC(=O)C1=C(C)NC(C)=C(C(=O)OCCN(C)Cc2ccccc2)C1c1cccc([N+](=O)[O-])c1 (stereo not drawn) [Nicardipine hydrochloride, 4-(3-nitrophenyl)-2,6-dimethyl-1,4-dihydropyridine-3,5-dicarboxylic acid-3-methyl ester-5-β-(N-benzyl-N-methylamino) ethyl hydrochloride, reference compound]
ED20 (anesthetized rats; Rattus norvegicus, iv, anesthetized Wistar rats about 250 g, read-out: ED20 (dose decreasing mean blood pressure by 20%)): 0.021 mg/kg | Duration T1/2 (half-life of hypotensive action) (anesthetized rats; i.v., dose 30): 4.2 min | Changes in mean blood pressure (conscious rats; after 30 min): -26.7 mmHg | Changes in mean blood pressure (conscious rats; after 60 min): -19.2 mmHg | Changes in mean blood pressure (conscious rats; after 90 min): -18.3 mmHg | Changes in mean blood pressure (conscious rats; after 2 hr): -16.3 mmHg | Changes in mean blood pressure (conscious rats; after 3 hr): -7.1 mmHg | Changes in mean blood pressure (conscious rats; after 5 hr): +1.3 mmHg | Changes in mean blood pressure (conscious rats; after 7 hr): +2.5 mmHg | Changes in MBP ([1]; 10 mg/kg oral, 30 min.): -28 ± 13 mmHg | Changes in MBP ([1]; 10 mg/kg oral, 60 min.): -29 ± 11 mmHg | Changes in MBP ([1]; 10 mg/kg oral, 90 min.): -17 ± 14 mmHg | Changes in MBP ([1]; 10 mg/kg oral, 2 hr.): -18 ± 9 mmHg | Changes in MBP ([1]; 10 mg/kg oral, 3 hr.): -12 ± 8 mmHg | Changes in MBP ([1]; 10 mg/kg oral, 5 hr.): -10 mmHg | Changes in MBP ([1]; 10 mg/kg oral, 7 hr.): -11 ± 6 mmHg | time to peak of antihypertensive action after the administration (mean blood pressure): one | Changes in MBP (mean blood pressure; 0.5 min.): -17 ± 2% | Changes in MBP (mean blood pressure; 1 min.): -18 ± 3% | Changes in MBP (mean blood pressure; 2 min.): -16 ± 3% | Changes in MBP (mean blood pressure; 5 min.): -11 ± 4% | Changes in MBP (mean blood pressure; 10 min.): -7 ± 4% | Changes in MBP (mean blood pressure; 15 min.): -8 ± 5% | Changes in Max dLVP/dt (myocardium; 0.5 min.): +5 ± 3% | Changes in Max dLVP/dt (myocardium; 1 min.): +10 ± 7% | Changes in Max dLVP/dt (myocardium; 2 min.): +38 ± 23% | Changes in Max dLVP/dt (myocardium; 5 min.): +42 ± 24% | Changes in Max dLVP/dt (myocardium; 10 min.): +31 ± 18% | Changes in Max dLVP/dt (myocardium; 15 min.): +6 ± 11% | time to peak of CBF after the administration [2]: one | Changes in CBF ([2]; 0.5 min.): +7% | Changes in CBF ([2]; 1 min.): +14% | Changes in CBF ([2]; 2 min.): +13% | Changes in CBF ([2]; 5 min.): +5% | Changes in CBF ([2]; 10 min.): +3% | time to peak of FBF after the administration [3]: 2 min | Changes in FBF ([3]; 0.5 min.): +7 ± 7% | Changes in FBF ([3]; 1 min.): +20 ± 9% | Changes in FBF ([3]; 2 min.): +24 ± 0% | Changes in FBF ([3]; 5 min.): +17 ± 10% | Changes in FBF ([3]; 10 min.): +6 ± 0% | 50% inhibited concentration to Ca^++ contraction relative to compound (140) hydrochloride (Ca^++ contraction; as much as that of compound (140) hydrochloride): twice | inhibitory activity of platelet aggregation (platelet aggregation; 100 μM): has inhibitory activity of platelet aggregation | inhibition at 100 µM (platelet aggregation): 35.2 ± 9.4%

IC50 (Ca^++ contraction; 30-40 min after treatment, K-depolarized solution, read-out: 50% inhibited concentration to Ca^++ contraction): 0.1 nM
SMILES: COC(=O)C1=C(C)NC(C)=C(C(=O)OCC(C)(C)CN(C)Cc2ccccc2)C1c1cc([N+](=O)[O-])ccc1F (stereo not shown) [(140) hydrochloride, 3-(N-Benzyl-N-methylamino)-2,2-dimethylpropyl methyl 2,6-dimethyl-4-(2-fluoro-5-nitrophenyl)-1,4-dihydropyridine-3,5-dicarboxylate]
Changes in mean blood pressure (conscious rats; after 30 min): -36.7 mmHg | Changes in mean blood pressure (conscious rats; after 60 min): -35.4 mmHg | Changes in mean blood pressure (conscious rats; after 90 min): -36.3 mmHg | Changes in mean blood pressure (conscious rats; after 2 hr): -36.2 mmHg | Changes in mean blood pressure (conscious rats; after 3 hr): -33.8 mmHg | Changes in mean blood pressure (conscious rats; after 5 hr): -32.6 mmHg | Changes in mean blood pressure (conscious rats; after 7 hr): -31.7 mmHg | Changes in MBP ([1]; 3 mg/kg oral, 30 min.): -68 ± 2 mmHg | Changes in MBP ([1]; 3 mg/kg oral, 60 min.): -69 ± 4 mmHg | Changes in MBP ([1]; 3 mg/kg oral, 90 min.): -65 ± 2 mmHg | Changes in MBP ([1]; 3 mg/kg oral, 2 hr.): -65 ± 2 mmHg | Changes in MBP ([1]; 3 mg/kg oral, 3 hr.): -65 ± 2 mmHg | Changes in MBP ([1]; 3 mg/kg oral, 5 hr.): -55 mmHg | Changes in MBP ([1]; 3 mg/kg oral, 7 hr.): -39 ± 5 mmHg | Changes in MBP (mean blood pressure; 0.5 min.): -6 ± 1% | Changes in MBP (mean blood pressure; 1 min.): -10 ± 1% | Changes in MBP (mean blood pressure; 2 min.): -15 ± 1% | Changes in MBP (mean blood pressure; 5 min.): -20 ± 2% | Changes in MBP (mean blood pressure; 10 min.): -23 ± 2% | Changes in MBP (mean blood pressure; 15 min.): -28 ± 3% | Changes in Max dLVP/dt (myocardium; 0.5 min.): 0 ± 2% | Changes in Max dLVP/dt (myocardium; 1 min.): +2 ± 2% | Changes in Max dLVP/dt (myocardium; 2 min.): +2 ± 3% | Changes in Max dLVP/dt (myocardium; 5 min.): -6 ± 3% | Changes in Max dLVP/dt (myocardium; 10 min.): +6 ± 4% | Changes in Max dLVP/dt (myocardium; 15 min.): +4 ± 4% | Changes in CBF ([2]; 0.5 min.): +7% | Changes in CBF ([2]; 1 min.): +14% | Changes in CBF ([2]; 2 min.): +17% | Changes in CBF ([2]; 5 min.): +22% | Changes in CBF ([2]; 10 min.): +22% | inhibition at 100 µM (platelet aggregation): -1.1 ± 1.4%

SMILES: CCOC(=O)C1=C(C)NC(C)=C(C(=O)OC)C1c1cccc(Cl)c1Cl (stereo not shown) [Felodipine, 4-(2,3-dichlorophenyl)-2,6-dimethyl-1,4-dihydropyridine-3,5-dicarboxylic acid-3-methyl ester-5-ethyl ester, reference compound]
Changes in mean blood pressure (conscious rats; after 30 min): -34 mmHg | Changes in mean blood pressure (conscious rats; after 60 min): -27 mmHg | Changes in mean blood pressure (conscious rats; after 90 min): -24 mmHg | Changes in mean blood pressure (conscious rats; after 2 hr): -22 mmHg | Changes in mean blood pressure (conscious rats; after 3 hr): -17 mmHg | Changes in mean blood pressure (conscious rats; after 5 hr): -10 mmHg | Changes in mean blood pressure (conscious rats; after 7 hr): -5 mmHg | solubility in water [5]: very purely soluble in water

Reference: US4578395A, “Certain aralkylaminoalkyl esters of 1,4 dihydropyridines as antihypertensive” (Teijin Limited, priority 1983, dated 1986)
